Results on 24 molecules are retold here after the OPERA property sets (Mansouri et al. 2018).

Molecules are shown by their SMILES.

What is called logP is the decadic logarithm of the partition coefficient of the neutral form, usually between octanol and water. With `N#CN=[N+]([O-])c1ccnc2ccccc12`, the logP amounted to 2.07. The molecule `N#C/N=[N+](\[O-])c1ccccn1` showed a logP of 0.53. As for `N#C/N=[N+](\[O-])c1cccc(Br)c1`, the figure is 2.56; as for `Cc1cccc([N+]([O-])=NC#N)c1`, 2.49. In turn, `N#C/N=[N+](\[O-])c1cccc(Cl)c1` yielded a logP of 2.4. On to `N#CN=[N+]([O-])c1ccc(F)cc1`, for which the logP is 1.8.

Turning to `COc1ccc(/[N+]([O-])=N/C#N)cc1`, the logP turned out to be 2.15. The same measure for `N#CN=[N+]([O-])c1ccc(C(F)(F)F)cc1`: 2.47; for `N#CN=[N+]([O-])c1ccc(C#N)cc1`: 1.18. `N#CN=[N+]([O-])c1cccc(C(F)(F)F)c1` registered a log partition coefficient (logP) of 2.52. `N#CN=[N+]([O-])c1ncccn1` yielded a logP of -0.13.

For the molecule `N#CN=[N+]([O-])c1ccc(Cl)cc1`, the logP is 2.33. The same measure for `N#CN=[N+]([O-])c1cccc(C#N)c1`: 1.15; for `N#C/N=[N+](\[O-])c1ccc(Br)cc1`: 2.5. `N#CN=[N+]([O-])c1cnccn1`: the logP turned out to be 0.1.

Regarding `N#CN=[N+]([O-])c1cccc2ccccc12`, the logP was 3.17. For the molecule `CN(C)c1ccc(/[N+]([O-])=N/C#N)cc1`, the logP worked out at 2.3. In the case of `COc1cccc(/[N+]([O-])=N/C#N)c1`, the logP turned out to be 2.24. With `N#C/N=[N+](\[O-])c1ccc([N+](=O)[O-])cc1`, the lipophilicity (logP) is 1.51. For `N#CN=[N+]([O-])c1ccccc1`, the logP came to 1.87. As to `N#C/N=[N+](\[O-])c1cccc([N+](=O)[O-])c1`, the logP was 1.45.

`N#C/N=[N+](\[O-])c1cccc(F)c1`: the logP was 1.85. Turning to `Cc1ccc([N+]([O-])=NC#N)cc1`, the log partition coefficient (logP) is 2.39.

Turning to `CCNc1nonc1N`, the logP was found to be 0.51.
